Results from patent publication US20080188439A1, “Directed metabolism of compounds by glucuronidation and sulfonation donors to decrease toxicity” (priority 2006, published 2008).

Columns and labels:
[1] = cited from earlier work
C57B16/J male mice [2] = experiment: Dose-response of APAP toxicity (LD60) in mice; format: in vivo
Protocol: In prior experiments in the laboratory, the LD60, of APAP was determined to be about 600 mgs/kg. The molecular weight of APAP is 151; therefore, the LD60, was about 4 mMol/Kg.

[3] = cited from earlier work; remark: listed apart in the source
C57B16/J male mice [4] = conditions: APAP 4 mMol/kg (600 mg/kg) IP plus 0.2 ml physiological saline; three of eight animals
[5] = system: UDP-glucose dehydrogenase; conditions: UDP-glucose dehydrogenase reaction; cited from earlier work

Row | SMILES | median half-life after an overdose ([1]; 112 patients, overdose) [h] | time of maximal blood concentrations after ingestion ([1]; human, oral) [min] | experimental half-life (t0.5 β) ([1]; human, single oral dose of 1-3 gms) [h] | volume of distribution ([1]; human) | share of a therapeutic dose biotransformed in the liver ([1]; therapeutic dose) [%] | share of the toxic dose excreted in the first 24 hours ([1]; toxic dose, first 24 hours) | LD60 (C57B16/J male mice [2]; converted with molecular weight 151) | LD60 (C57B16/J male mice [2]; prior experiments in the laboratory) | share of circulating acetaminophen undergoing Phase II glucuronide conjugation ([3]; adult, normal (non-saturated) conditions) | share of circulating acetaminophen undergoing Phase II sulfonate conjugation ([3]; adult) | share of circulating acetaminophen undergoing Phase I metabolism by cytochrome P-450 enzymes ([3]; normal conditions) | survival at 24 hours, APAP/saline (control group) (C57B16/J male mice [4]) [%] | Km [5] [µM]
1 | CC(=O)Nc1ccc(O)cc1 [APAP, N-acetyl-p-aminophenol] | 5.4 | 20 to 80 | 1.75 to 2.67 | approximately 0.95 L/Kg | 95 | over 90% | about 4 mMol/Kg | about 600 mgs/kg | approximately 55% | approximately 30% | Five | 37.5 | 
2 | NC(=O)c1ccc[n+]([C@@H]2O[C@H](COP(=O)([O-])OP(=O)(O)OC[C@H]3O[C@@H](n4cnc5c(N)ncnc54)[C@H](O)[C@@H]3O)[C@@H](O)[C@H]2O)c1 [NAD^+, nicotinamide adenine dinucleotide] |  |  |  |  |  |  |  |  |  |  |  |  | 424
